One molecule from patent US20180344715A1, “WNT/BETA-CATENIN SIGNAL TRANSDUCTION INHIBITORS AND THEIR USE IN TREATMENT OR PREVENTION OF DISEASES AND CONDITIONS LINKED WITH SAID TRANSDUCTION” (BERGEN TEKNOLOGIOVERFORING AS, priority 2015, published 2018) can be followed below.

One series has as its system RKO cells. Description: EdU label release assay, RKO. As to conditions: 5 μM, 3 days. It counts as cell-based. As to the method:
Two days later, cells were seeded singly onto 12 mm glass coverslips in 24-well plates. One day after, EdU was detected using the Click-iT® Plus EdU Alexa Fluor 488 Imaging Kit (Life Technologies, C10637) according to the manufacturer's protocol. For double staining of EdU and other proteins, the EdU stained cells were further used for immunofluorescence staining as described above. Intensity of EdU staining in paired cells were quantified by Photoshop CS6 software, unequal EdU distribution was considered when paired cells had intensity ratio higher than 2.

For another series, the system named is Apc^min/+ mice. In words: Apc min/+ mice study (intestinal adenomas, H&E and IHC). It counts as in vivo. The following applies: 50 mg/kg daily for 5 weeks. An excerpt: C57BL/6-Apc^min/+ mice were obtained from the Model Animal Research Center of Nanjing University (Nanjing, China). Mice were housed and fed a standard rodent diet at the Animal Facility of the Second Military Medical University (Shanghai, China) in compliance with the institutional guidelines of the Animal Care and Use Committee. […] The mice were weighed weekly and monitored daily for any signs of illness. The mice were sacrificed at the last day of the treatment. The small intestines were dissected, washed in PBS, fixed in 4% PBS-buffered formaldehyde and embedded in paraffin using standard procedures.
H&E and IHC were performed according to the protocol previously described (Qu, Y. et al, supra). Primary antibodies used for IHC were β-catenin (ab16051, 1:1000, Abcam), Ki67 (ab16667, clone SP6, 1:100, Abcam) and BrdU (ab6326, clone BU1/75, 1:80, Abcam). Investigators were blinded when counting the intestinal adenomas and assessing the homeostasis of mice and fish intestine. Histologic images were captured using the Qcapture Suite software with a Qimaging Exi Blue camera attached to a Leica DMRBE microscope.

The target in the next series is T1, GFP-SHPRH (Homo sapiens, UniProt Q149N8).
T1 construct: expressed in transfected cells; host or cells: SW480
Description: MST ligand-binding assay, GFP-SHPRH in SW480 cell lysates. As to conditions: 25° C., 4 replicates.

A further series has as its system HCT116 cells. Description: Soft agar colony-formation assay, HCT116. The following applies: 10 days. It counts as cell-based. How it is done:
The soft agar colony-formation assay was performed using the CellTransformation Assays kit (catalog no. CBA-130; Cell Biolabs, Inc.) according to the recommended protocol. […] Medium containing drugs was replaced every 3 d. For the clonogenic assay, positively transfected cells (wild-type and mutant GFP-SHPRH and control GFP) were enriched by FACS and were seeded in six-well plates at a density of 3,000 cells per well. Medium was changed every 3 d. On the last day colony growth was quantified by crystal violet staining and measurement of OD at 590 nm.

The next series deals with T2, MED23 (Homo sapiens, UniProt Q9ULK4).
T2 construct: endogenous in cells; host or cells: SW480
T2 sequence (Q9ULK4 1-1368): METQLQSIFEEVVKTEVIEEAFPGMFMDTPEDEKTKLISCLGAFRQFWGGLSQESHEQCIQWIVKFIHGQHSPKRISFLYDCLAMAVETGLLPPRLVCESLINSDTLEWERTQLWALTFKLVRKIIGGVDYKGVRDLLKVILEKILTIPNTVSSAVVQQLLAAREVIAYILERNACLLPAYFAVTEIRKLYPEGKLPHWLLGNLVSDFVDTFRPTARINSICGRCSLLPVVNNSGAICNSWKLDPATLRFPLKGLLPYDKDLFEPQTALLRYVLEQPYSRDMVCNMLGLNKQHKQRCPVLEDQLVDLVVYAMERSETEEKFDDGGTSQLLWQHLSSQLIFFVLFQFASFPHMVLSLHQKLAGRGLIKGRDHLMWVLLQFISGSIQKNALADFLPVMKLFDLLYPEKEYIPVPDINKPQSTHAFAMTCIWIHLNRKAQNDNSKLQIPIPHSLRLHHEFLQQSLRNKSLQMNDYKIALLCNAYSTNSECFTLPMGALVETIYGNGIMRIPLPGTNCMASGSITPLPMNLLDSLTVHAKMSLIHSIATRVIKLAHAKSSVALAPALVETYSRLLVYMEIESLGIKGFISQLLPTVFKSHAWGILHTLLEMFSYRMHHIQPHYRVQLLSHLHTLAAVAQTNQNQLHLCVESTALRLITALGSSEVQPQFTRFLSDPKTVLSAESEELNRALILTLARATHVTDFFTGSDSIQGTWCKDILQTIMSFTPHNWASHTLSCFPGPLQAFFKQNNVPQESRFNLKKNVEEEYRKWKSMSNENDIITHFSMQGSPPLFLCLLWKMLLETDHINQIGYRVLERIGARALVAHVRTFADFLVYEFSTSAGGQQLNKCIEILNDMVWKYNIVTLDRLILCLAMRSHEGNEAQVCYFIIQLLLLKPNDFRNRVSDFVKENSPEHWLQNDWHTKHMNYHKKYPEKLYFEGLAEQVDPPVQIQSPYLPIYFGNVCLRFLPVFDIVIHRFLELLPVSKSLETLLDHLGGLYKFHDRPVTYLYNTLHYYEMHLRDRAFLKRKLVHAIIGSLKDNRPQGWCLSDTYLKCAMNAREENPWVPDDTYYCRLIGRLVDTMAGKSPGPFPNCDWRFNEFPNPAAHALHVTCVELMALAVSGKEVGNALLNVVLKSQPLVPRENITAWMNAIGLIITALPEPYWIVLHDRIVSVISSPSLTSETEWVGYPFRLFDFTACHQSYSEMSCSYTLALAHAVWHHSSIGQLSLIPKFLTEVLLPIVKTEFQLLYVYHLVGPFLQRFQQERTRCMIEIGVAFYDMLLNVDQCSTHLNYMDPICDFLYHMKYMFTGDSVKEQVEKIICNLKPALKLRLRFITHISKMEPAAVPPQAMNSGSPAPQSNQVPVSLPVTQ
In words: Cellular thermal shift assay (CETSA), MED23. Format: binding. As to conditions: SW480, 10 μM. As to the method: CETSA in intact cells was performed according to the protocol previously described (Martinez Molina, D. et al., 2013, Science 341, 84-87). Briefly, SW480 cells were seeded equally in 2 T75 flasks and allowed to reach 80% confluence one day after. […] After trypsinization and PBS wash, cells were resuspended in 450 μl PBS containing freshly added protease inhibitors and equally divided between 7 tubes. Cells in each tube were heated at indicated temperatures for 3 minutes and kept at room temperature for 3 minutes. Heated cells were lysed by 3 cycles of freezing in liquid nitrogen (1 minute) and thawing in room temperature water (1 minute). The cell lysates were centrifuged at 20,000 g for 20 minutes at 4° C. The soluble fractions were isolated for Western blotting analysis.

Another series concerns SW480-7TGC cells. In words: Flow cytometry of SW480-7TGC cells with Hoechst33342. The following applies: 24 hours. It counts as cell-based. For orientation: A flow cytometer gives signals particle by particle.

The structures appear in SMILES notation.

T1 sequence (Q149N8 whole entry): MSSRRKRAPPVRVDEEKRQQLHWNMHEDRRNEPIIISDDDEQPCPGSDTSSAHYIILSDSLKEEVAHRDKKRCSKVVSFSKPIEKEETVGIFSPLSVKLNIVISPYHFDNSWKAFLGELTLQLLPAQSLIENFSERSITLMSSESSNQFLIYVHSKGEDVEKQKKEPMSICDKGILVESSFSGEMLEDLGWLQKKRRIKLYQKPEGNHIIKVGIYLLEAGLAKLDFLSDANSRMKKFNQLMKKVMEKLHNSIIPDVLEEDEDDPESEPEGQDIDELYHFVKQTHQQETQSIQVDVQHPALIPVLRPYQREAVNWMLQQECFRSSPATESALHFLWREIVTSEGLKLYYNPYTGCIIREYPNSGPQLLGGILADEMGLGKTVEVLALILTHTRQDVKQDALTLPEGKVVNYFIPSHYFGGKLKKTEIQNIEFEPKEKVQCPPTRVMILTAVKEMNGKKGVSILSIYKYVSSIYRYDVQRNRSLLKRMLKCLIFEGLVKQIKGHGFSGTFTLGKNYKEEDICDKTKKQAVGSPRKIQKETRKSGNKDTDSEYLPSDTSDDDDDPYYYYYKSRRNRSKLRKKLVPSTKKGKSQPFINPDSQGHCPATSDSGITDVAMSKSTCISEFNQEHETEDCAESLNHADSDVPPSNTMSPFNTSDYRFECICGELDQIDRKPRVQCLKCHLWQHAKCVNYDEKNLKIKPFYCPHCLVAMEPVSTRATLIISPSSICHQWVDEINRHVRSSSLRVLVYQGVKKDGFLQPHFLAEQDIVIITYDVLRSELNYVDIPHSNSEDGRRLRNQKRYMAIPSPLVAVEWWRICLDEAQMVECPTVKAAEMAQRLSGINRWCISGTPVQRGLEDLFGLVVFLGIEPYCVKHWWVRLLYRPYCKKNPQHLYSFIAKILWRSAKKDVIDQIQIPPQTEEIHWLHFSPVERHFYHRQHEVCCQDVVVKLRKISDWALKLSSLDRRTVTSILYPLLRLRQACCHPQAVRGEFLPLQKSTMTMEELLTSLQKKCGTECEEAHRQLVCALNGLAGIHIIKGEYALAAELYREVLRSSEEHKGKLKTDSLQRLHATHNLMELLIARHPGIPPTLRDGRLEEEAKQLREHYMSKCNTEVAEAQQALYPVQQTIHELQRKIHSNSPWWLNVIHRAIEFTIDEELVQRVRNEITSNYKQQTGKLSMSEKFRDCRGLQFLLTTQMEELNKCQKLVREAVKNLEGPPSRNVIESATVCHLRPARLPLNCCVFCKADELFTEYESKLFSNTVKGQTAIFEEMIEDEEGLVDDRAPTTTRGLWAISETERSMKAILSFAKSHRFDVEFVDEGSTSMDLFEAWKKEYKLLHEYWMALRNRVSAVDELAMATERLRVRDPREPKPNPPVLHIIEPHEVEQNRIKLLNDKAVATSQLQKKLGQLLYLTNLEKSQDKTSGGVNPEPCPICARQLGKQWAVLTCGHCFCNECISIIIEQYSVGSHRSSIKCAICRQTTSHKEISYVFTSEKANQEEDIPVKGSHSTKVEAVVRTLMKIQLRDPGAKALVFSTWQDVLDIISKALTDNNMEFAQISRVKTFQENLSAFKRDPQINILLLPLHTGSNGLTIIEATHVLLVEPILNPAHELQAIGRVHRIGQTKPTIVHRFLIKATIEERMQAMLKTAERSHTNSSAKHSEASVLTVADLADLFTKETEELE
Description for GFP-SHPRH: Ten million SW480 cells overexpressing GFP-tagged SHPRH or free GFP were lysed in 1 mL radioimmunoprecipitation assay (RIPA) buffer. Cell lysates were diluted in buffer A [50 mM Hepes buffer (pH 7.5), 5 mM DTT, 10 mM CaCl2), 50 mM NaCl, and 0.05% Tween-20] to a final concentration at which the fluorescent signals of the GFP proteins were similar and well above the detection limit of the Monolith NT.115 instrument (NanoTemper Technologies GmbH). Ten microliters of each receptor were mixed with 10 μL of the ligand at various concentrations from 100 μM to 3.05 nM. Specifically, the ligand (4 mM in 100% DMSO) was diluted 1:20 to a final concentration of 200 μM in buffer A (giving 5% DMSO). Ten microliters of the 200 μM ligand solution was further serially diluted 1:1 in 10 μL of buffer A supplemented with 5% DMSO to make a 16-sample dilution series down to 6.1 nM. Ten microliters of the cell lysate were added to 10 μL of each ligand solution. […] The fluorescence signal during the thermophoresis was monitored for 30 s, and the change in fluorescence was analyzed as thermophoresis with T-jump. The Kd was calculated by fitting a standard binding curve to the average of four independent dilution series.
Description for SW480-7TGC cells: To establish stable cell lines containing Wnt reporters, lentiviral vector 7TGC or 7TC together with packaging plasmids pMD2.G and pCMVR8.74 were co-transfected into 293FT cells with lipofectamine 3000. After 16 hours, culture medium was replaced with medium for cells of interest. One day later, the culture medium was filtered through a 0.45 μm filter and incubated with cells for 24 hours. The transduced cells were assessed by fluorescence microscopy and fluorescence-activated cell sorting (FACS Aria, BD Biosciences).

For the molecule `CNC(=O)c1ccccc1Sc1ccc2c(/C=C/c3ccccn3)n[nH]c2c1` [axitinib, N-Methyl-2-[[3-[(E)-2-pyridin-2-ylethenyl]-1H-indazol-6-yl]sulfanyl]benzamide], the “EdU ACD” value with RKO cells was “pre-treatment with 6B10 was required for EdU ACD induction”. In the series with Apc^min/+ mice, the “normal-looking small intestine: mucosa organization, crypt density, distribution of Ki67 positive cells” value was “no obvious change”; the “nuclear β-catenin in adenomas (IHC)” value is “reduced nuclear β-catenin”; the “staining of the proliferation marker Ki67 in adenomas” value is given as “Obviously weaker staining”. Also, the “numbers of multi-villus adenomas and microadenomas” value in the series on Apc^min/+ mice (oral gavage) is “significantly decreased”. Further, the Kd (in general, the concentration at which binding is half-saturated) on GFP-SHPRH was determined as 10.4 ± 3.3 µM. The colony growth result in the series on HCT116 cells is “strongly and dose-dependently inhibited”. For the same molecule, the “direct binding in intact living cells” value on MED23 is given as “confirmed”. The “TCF-GFP^low cells” value with SW480-7TGC cells is listed as “increased”. Besides, the “apoptosis in TCF-GFP^low cells” value with SW480-7TGC cells (Hoechst33342) was “induced apoptosis”.
